{"source": "ChEMBL document CHEMBL3046261", "about": "“Efficient entry to diversely functionalized spirooxindoles from isatin and their biological activity” (Med Chem Res, 2013)"}
{"test": "Cytotoxicity against Homo sapiens (human) U87 cells by MTT assay", "type": "functional, cell-based, U-87MG ATCC", "settings": "U-87 MG", "units": {"IC50": "µg/mL"}}
{"smiles": "O=C1C(=O)N(CCCBr)c2ccccc21", "IC50": 2.5}
{"smiles": "O=C1C(=O)N(CCCCBr)c2ccccc21", "IC50": 19}
{"smiles": "O=C1C(=O)N(CCCCCCBr)c2ccccc21", "IC50": 19}
{"smiles": "Cc1nn(-c2ccccc2)c2c1C1(C(=O)Nc3ccccc31)C(C#N)=C(N)O2", "note": "(configuration not stated)", "IC50": 156}
{"smiles": "O=C1C(=O)N(CCBr)c2ccccc21", "IC50": 4.9}
{"smiles": "Cc1nn(-c2ccccc2)c2c1C1(C(=O)Nc3ccc(Br)cc31)C(C#N)=C(N)O2", "note": "(configuration not stated)", "IC50": 156}
{"smiles": "Cc1nn(-c2ccccc2)c2c1C1(C(=O)N(CCBr)c3ccccc31)C(C#N)=C(N)O2", "note": "(configuration not stated)", "IC50": 78}
{"smiles": "Cc1nn(-c2ccccc2)c2c1C1(C(=O)N(CCCBr)c3ccccc31)C(C#N)=C(N)O2", "note": "(configuration not stated)", "IC50": 78}
{"smiles": "Cc1nn(-c2ccccc2)c2c1C1(C(=O)N(CCCCBr)c3ccccc31)C(C#N)=C(N)O2", "note": "(configuration not stated)", "IC50": 39}
{"smiles": "Cc1nn(-c2ccccc2)c2c1C1(C(=O)N(CCCCCCBr)c3ccccc31)C(C#N)=C(N)O2", "note": "(configuration not stated)", "IC50": 78}
{"smiles": "Cc1nn(-c2ccccc2)c2c1C1(C(=O)N(CCCCCCCCCCBr)c3ccccc31)C(C#N)=C(N)O2", "note": "(configuration not stated)", "IC50": 19}
{"smiles": "O=C1C(=O)N(CCCCCCCCCCBr)c2ccccc21", "IC50": 19}
{"smiles": "N#CC1=C(N)Oc2[nH]c(=S)[nH]c(=O)c2C12C(=O)Nc1ccc(Br)cc12", "note": "(configuration not stated)", "IC50": 156}
{"smiles": "N#CC1=C(N)Oc2[nH]c(=S)[nH]c(=O)c2C12C(=O)N(CCBr)c1ccccc12", "note": "(configuration not stated)", "IC50": 78}
{"smiles": "N#CC1=C(N)Oc2[nH]c(=O)[nH]c(=S)c2C12C(=O)N(CCCBr)c1ccccc12", "note": "(configuration not stated)", "IC50": 624}
{"smiles": "N#CC1=C(N)Oc2[nH]c(=S)[nH]c(=O)c2C12C(=O)N(CCCCBr)c1ccccc12", "note": "(configuration not stated)", "IC50": 78}
{"smiles": "N#CC1=C(N)Oc2[nH]c(=S)[nH]c(=O)c2C12C(=O)N(CCCCCCBr)c1ccccc12", "note": "(configuration not stated)", "IC50": 78}
{"smiles": "N#CC1=C(N)Oc2[nH]c(=O)[nH]c(=S)c2C12C(=O)N(CCCCCCCCCCBr)c1ccccc12", "note": "(configuration not stated)", "IC50": 39}
{"smiles": "N#CC1=C(N)Oc2c(c(=O)oc3ccccc23)C12C(=O)Nc1ccccc12", "note": "(configuration not stated)", "IC50": 78}
{"smiles": "N#CC1=C(N)Oc2c(c(=O)oc3ccccc23)C12C(=O)Nc1ccc(Br)cc12", "note": "(configuration not stated)", "IC50": 78}
{"smiles": "N#CC1=C(N)Oc2c(c(=O)oc3ccccc23)C12C(=O)N(CCBr)c1ccccc12", "note": "(configuration not stated)", "IC50": 78}
{"smiles": "N#CC1=C(N)Oc2c(c(=O)oc3ccccc23)C12C(=O)N(CCCBr)c1ccccc12", "note": "(configuration not stated)", "IC50": 156}
{"smiles": "N#CC1=C(N)Oc2c(c(=O)oc3ccccc23)C12C(=O)N(CCCCBr)c1ccccc12", "note": "(configuration not stated)", "IC50": 78}
{"smiles": "N#CC1=C(N)Oc2c(c(=O)oc3ccccc23)C12C(=O)N(CCCCCCBr)c1ccccc12", "note": "(configuration not stated)", "IC50": 156}
{"smiles": "N#CC1=C(N)Oc2c(c(=O)oc3ccccc23)C12C(=O)N(CCCCCCCCCCBr)c1ccccc12", "note": "(configuration not stated)", "IC50": 39}
{"smiles": "CC1(C)CC(=O)C2=C(C1)OC(N)=C(C#N)C21C(=O)N(CCCCCCCCCCBr)c2ccccc21", "note": "(configuration not stated)", "IC50": 2.5}
{"smiles": "N#CC1=C(N)OC2=C(C(=O)CCC2)C12C(=O)Nc1ccccc12", "note": "(configuration not stated)", "IC50": 156}
{"smiles": "N#CC1=C(N)OC2=C(C(=O)CCC2)C12C(=O)Nc1ccc(Br)cc12", "note": "(configuration not stated)", "IC50": 312}
{"smiles": "N#CC1=C(N)OC2=C(C(=O)CCC2)C12C(=O)N(CCBr)c1ccccc12", "note": "(configuration not stated)", "IC50": 78}
{"smiles": "N#CC1=C(N)OC2=C(C(=O)CCC2)C12C(=O)N(CCCBr)c1ccccc12", "note": "(configuration not stated)", "IC50": 624}
{"smiles": "N#CC1=C(N)Oc2[nH]c(=O)[nH]c(=O)c2C12C(=O)Nc1ccccc12", "note": "(configuration not stated)", "IC50": 312}
{"smiles": "N#CC1=C(N)Oc2[nH]c(=O)[nH]c(=O)c2C12C(=O)Nc1ccc(Br)cc12", "note": "(configuration not stated)", "IC50": 78}
{"smiles": "N#CC1=C(N)Oc2[nH]c(=O)[nH]c(=O)c2C12C(=O)N(CCBr)c1ccccc12", "note": "(configuration not stated)", "IC50": 78}
{"smiles": "N#CC1=C(N)Oc2[nH]c(=O)[nH]c(=O)c2C12C(=O)N(CCCBr)c1ccccc12", "note": "(configuration not stated)", "IC50": 312}
{"smiles": "N#CC1=C(N)Oc2[nH]c(=O)[nH]c(=O)c2C12C(=O)N(CCCCBr)c1ccccc12", "note": "(configuration not stated)", "IC50": 312}
{"smiles": "N#CC1=C(N)Oc2[nH]c(=O)[nH]c(=O)c2C12C(=O)N(CCCCCCBr)c1ccccc12", "note": "(configuration not stated)", "IC50": 78}
{"smiles": "N#CC1=C(N)Oc2[nH]c(=O)[nH]c(=O)c2C12C(=O)N(CCCCCCCCCCBr)c1ccccc12", "note": "(configuration not stated)", "IC50": 39}
{"smiles": "CC1(C)CC(=O)C2=C(C1)OC(N)=C(C#N)C21C(=O)N(CCBr)c2ccccc21", "note": "(configuration not stated)", "IC50": 78}
{"smiles": "CC1(C)CC(=O)C2=C(C1)OC(N)=C(C#N)C21C(=O)N(CCCBr)c2ccccc21", "note": "(configuration not stated)", "IC50": 312}
{"smiles": "CC1(C)CC(=O)C2=C(C1)OC(N)=C(C#N)C21C(=O)N(CCCCBr)c2ccccc21", "note": "(configuration not stated)", "IC50": 156}
{"smiles": "CC1(C)CC(=O)C2=C(C1)OC(N)=C(C#N)C21C(=O)N(CCCCCCBr)c2ccccc21", "note": "(configuration not stated)", "IC50": 78}
{"smiles": "O=NN(CCCl)C(=O)NCCCl", "note": "[CARMUSTINE]", "IC50": 3.9}
